Holding throughout (format): cell-based, human
The test system of experiment [1] is cleaved PARP in CaSki cells. The experiment in a line: Western blot for cleavage of PARP, CaSki. Particulars: 24 hours. The procedure: The effect of Br-ORM on protein expression in cervical cancer cells were determined by Western blot analysis by using specific antibodies.
(§1) It was observed that Br-ORM exerts potent growth inhibitory effects, so the effect of Br-ORM on apoptosis induction was further examined. Cervical cancer cells were treated with Br-ORM (10 μM) for 24 hours and the apoptosis inducing effect of Br-ORM was analyzed by Annexin V staining and Western blot analysis for cleavage in PARP protein.
FIG. 13. Br-ORM decreases proliferation and colony formation of cervical cancer cells. FIG. 13A. Effect of Br-ORM on cell viability of CaSki cells (i) and SiHa cells (ii). Briefly, cervical cancer cells were seeded (2500) in each well of 96-well plate and after overnight incubation; cells were treated with indicated concentrations of Br-ORM for 24 hours. Cell viability was assessed by MTS assay. […] Bar graphs indicating quantification of colony formation in CaSki (i), and SiHa (ii) cells of cervical cancer with respect to vehicle control. […] Briefly, cervical cancer cells were treated with Br-ORM (10 μM) for 24 hours and the apoptosis inducing effect of Br-ORM was analyzed by Annexin V staining. […] The equal loading of protein in each lane was determined by probing the blots with β-actin antibody (FIG. 13F). […] Br-ORM arrests cell cycle in G1/S phase as determined by flow cytometry. […]

Experiment [2] has as its system HPV16 E6 and E7 transcripts in CaSki cells. The experiment is described as follows: qPCR of HPV E6 and HPV E7 transcripts, CaSki. Conditions: 18 hours. The procedure: (§2) RNA from cervical cancer cells was isolated using Qiagen kit and quantified using NanoDrop instrument 2000 (Thermo Scientific, Waltham, MA, USA). To analyze the expression of miR-200a in control and Br-ORM treated cells, 100 ng total RNA was reverse transcribed into cDNA using specific primers designed for miRNA analysis (Applied Biosystems, Foster City, CA, USA). The expression of this miRNAs was determined by qRT-PCR using the Taqman PCR master mixture and specific primers designed for detection of mature miRNAs (Applied Biosystems). The expression of miRNA was normalized with the expression of endogenous control, RNU6B.
HPV infections are associated with a majority of cervical cancer cases. The effect of Br-ORM on the expression of HPV E6 and HPV E7 oncogenes in CaSki and SiHa cells was investigated. […] Br-ORM repressed both transcription and translation of E6 and E7 oncogene in cervical cancer cells.
(§3) FIG. 16. Effect of Br-ORM on HPV oncoproteins and tumor suppressor miR-200 in cervical cancer cells. […] Increase expression of tumor suppressor miR200a in cervical cancer cells treated with BR-ORM for 24 hours in comparison to non-treated controls was determined through real time PCR (FIG. 16A(v)-(vii)). […]

In experiment [3] the test system is miR-200a in cervical cancer cells. The experiment in a line: qRT-PCR of miR-200a. Conditions: qPCR, 24 hours. The procedure:
as §2
Modulations of microRNAs are involved in cervical cancer development, progression and metastasis. It is reported that expression of β-catenin is directly regulated by miR-200a. Br-ORM targets β-catenin signaling, therefore, to further understand the underlying mechanisms, the expression of miR-200a following the Br-ORM treatment was evaluated.
as §3

For experiment [4], the system named is HPV16 E6 and E7 transcripts in SiHa cells. The experiment in a line: qPCR of HPV E6 and HPV E7 transcripts, SiHa. Conditions: 18 hours.
In another experiment the test system is CaSki cells. The experiment in a line: Apoptosis analysis by Annexin V staining, CaSki. Particulars: 10 μM, 24 hours. The procedure: The apoptosis inducing effect of Br-ORM on cervical cells was analyzed by Annexin V-FLUOS staining kit (Roche Diagnostic Corp. Indianapolis, IN, USA). The procedure was followed as described in the vendor's protocol. Briefly, 60% confluent cervical cancer cells (CaSki and SiHa) were treated with Br-ORM (10, 15, and 20 μM) and kept in a CO2 incubator at 37° C. for 24 hours. Control group cells were treated with DMSO as the vehicle. Cells were washed with PBS (1×) and kept in Annexin-V solution for 20 minutes. Images were captured in bright and green field by fluorescent microscope.
as §1

In the case of `COc1ccc2c(c1)OC(C)(C)C(c1ccc(Br)cc1)C2c1ccc(OCCN2CCCC2)cc1` (centres unmarked) [ORM-Br], in experiment [1], the “protein levels of cleaved PARP” value was “dose dependently enhanced the protein levels of cleaved PARP”. For the same molecule, the “HPV16 E6 and E7 transcripts” value in experiment [2] and in experiment [4] was “significant downregulation” in each case. Besides, the “expression of miR-200a” value in experiment [3] is recorded as “significant (P<0.05) increase”. In the experiment with CaSki cells, the “apoptosis induction (Annexin V staining)” value is “induced apoptosis”.

For the origin of these results see US20240208950A1, “COMPOSITIONS AND METHODS FOR TREATMENT OF CERVICAL AND OVARIAN CANCER” (SOUTH DAKOTA BOARD OF REGENTS, priority 2021, published 2024).
